Measurements as given in patent US20250326732A1 (Pretzel Therapeutics, Inc., priority 2021, published 2025).

Target: POLRMT (Homo sapiens (Human), UniProt O00411)
Experiment: homogeneous TR-FRET assay of mitochondrial transcription (inhibition of POLRMT)
Format: biochemical
Details: 7.5 nM POLRMT, 15 nM TFB2M, 30 nM TFAM, 0.5 nM DNA template, 500 μM NTPs, 37° C. for 60 minutes
Summary of the method: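 POLRMT transcription from linearized pUC-LSP DNA template; RNA product detected by hybridization of ATTO647 acceptor (1 nM) and biotinylated donor (3 nM) probes plus Europium-streptavidin. Reaction stopped with EDTA/700 mM NaCl buffer, pH 7.5.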

Chain of POLRMT (O00411 42-1230): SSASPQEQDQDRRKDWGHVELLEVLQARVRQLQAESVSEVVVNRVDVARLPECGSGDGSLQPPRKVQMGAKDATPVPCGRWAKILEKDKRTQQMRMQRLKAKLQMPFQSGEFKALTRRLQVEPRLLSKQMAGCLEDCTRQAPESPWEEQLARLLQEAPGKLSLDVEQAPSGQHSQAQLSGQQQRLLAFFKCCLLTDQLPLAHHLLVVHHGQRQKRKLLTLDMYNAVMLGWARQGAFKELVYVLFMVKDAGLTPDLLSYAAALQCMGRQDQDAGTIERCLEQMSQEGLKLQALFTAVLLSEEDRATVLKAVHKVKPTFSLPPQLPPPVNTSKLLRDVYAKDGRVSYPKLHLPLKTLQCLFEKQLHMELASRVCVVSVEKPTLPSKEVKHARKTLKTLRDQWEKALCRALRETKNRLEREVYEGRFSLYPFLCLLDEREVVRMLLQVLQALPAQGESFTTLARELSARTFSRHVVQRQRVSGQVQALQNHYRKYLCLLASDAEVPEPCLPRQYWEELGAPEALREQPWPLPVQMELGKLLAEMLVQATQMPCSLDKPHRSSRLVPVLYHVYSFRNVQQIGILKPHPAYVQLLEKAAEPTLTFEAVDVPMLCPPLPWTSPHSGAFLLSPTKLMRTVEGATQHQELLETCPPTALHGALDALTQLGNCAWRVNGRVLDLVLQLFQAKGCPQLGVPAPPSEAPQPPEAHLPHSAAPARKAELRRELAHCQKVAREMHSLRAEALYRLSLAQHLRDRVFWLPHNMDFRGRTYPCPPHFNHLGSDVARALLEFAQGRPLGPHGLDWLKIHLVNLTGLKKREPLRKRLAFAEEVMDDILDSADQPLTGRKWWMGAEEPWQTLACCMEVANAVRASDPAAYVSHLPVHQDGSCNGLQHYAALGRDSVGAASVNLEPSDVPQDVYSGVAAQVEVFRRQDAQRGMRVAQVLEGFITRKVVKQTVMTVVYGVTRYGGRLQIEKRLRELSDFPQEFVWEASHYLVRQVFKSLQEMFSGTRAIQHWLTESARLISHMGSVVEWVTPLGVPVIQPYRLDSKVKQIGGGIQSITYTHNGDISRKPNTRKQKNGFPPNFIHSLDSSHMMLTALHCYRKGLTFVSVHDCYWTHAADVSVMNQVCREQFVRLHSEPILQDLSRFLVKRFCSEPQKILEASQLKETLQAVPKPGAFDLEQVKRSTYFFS

IC50 [nM] | SMILES
300 | Cc1ccccc1-c1cc(=O)oc2cc(CN(C)C(=O)N3CCC[C@H](C(=O)O)C3)ccc12 [Example 146, (S)-1-(methyl((2-oxo-4-(o-tolyl)-2H-chromen-7-yl)methyl)carbamoyl)piperidine-3-carboxylic acid]
30 | Cc1ccccc1-c1cc(=O)oc2cc(N(C)CC(C)(C)C(=O)O)ccc12 [Example 128, 2,2-dimethyl-3-(methyl(2-oxo-4-(o-tolyl)-2H-chromen-7-yl)amino)propanoic acid]
300 | Cc1ccccc1-c1cc(=O)oc2cc(CNC(=O)C3CCC(C(=O)O)CC3)ccc12 [Example 152, (1R,4R)-4-(((2-oxo-4-(o-tolyl)-2H-chromen-7-yl)methyl)carbamoyl)cyclohexane-1-carboxylic acid]
200 | Cc1ccccc1-c1cc(=O)oc2cc(N(C)[C@H](C)CC(=O)O)ccc12 [Example 230, (R)-3-(methyl(2-oxo-4-(o-tolyl)-2H-chromen-7-yl)amino)butanoic acid]
400 | CNc1ccc2c(-c3ccc(F)cc3Cl)cc(=O)oc2c1 [Example 25, 4-(2-chloro-4-fluorophenyl)-7-(methylamino)-2H-chromen-2-one]
7000 | CCOC(=O)[C@H]1CCCN(C(=O)N(C)Cc2ccc3c(-c4ccc(F)cc4Cl)cc(=O)oc3c2)C1 [Example 07, ethyl (S)-1-(((4-(2-chloro-4-fluorophenyl)-2-oxo-2H-chromen-7-yl)methyl)(methyl)carbamoyl)piperidine-3-carboxylate]
3000 | COC[C@H](Nc1ccc2c(-c3ccccc3C)cc(=O)oc2c1)C(=O)O [Example 102, O-methyl-N-(2-oxo-4-(o-tolyl)-2H-chromen-7-yl) serine]
400 | CN(C)c1ccc2c(-c3ccc(F)cc3Cl)cc(=O)oc2c1 [Example 31, 4-(2-chloro-4-fluorophenyl)-7-(dimethylamino)-2H-chromen-2-one]
73000 | CC(=O)N(C)[C@H]1CCCN(C(=O)c2ccc3c(-c4ccccc4C)cc(=O)oc3c2)C1 [Example 173, (S)—N-methyl-N-(1-(2-oxo-4-(o-tolyl)-2H-chromene-7-carbonyl)piperidin-3-yl)acetamide]
2000 | Cc1ccccc1-c1cc(=O)oc2cc(NCC(=O)N3CCC[C@H](C(=O)O)C3)ccc12 [Example 79, (S)-1-((2-oxo-4-(o-tolyl)-2H-chromen-7-yl)glycyl)piperidine-3-carboxylic acid]
6000 | Cc1ccccc1-c1cc(=O)oc2cc(NCC(=O)O)ccc12 [Example 71, (2-oxo-4-(o-tolyl)-2H-chromen-7-yl)glycine]
200 | Cc1ccccc1-c1cc(=O)oc2cc(N(C)[C@@H](C)CC(=O)O)ccc12 [Example 228, (S)-3-(methyl(2-oxo-4-(o-tolyl)-2H-chromen-7-yl)amino)butanoic acid]
2000 | Cc1ccccc1-c1cc(=O)oc2cc(NCc3ccnn3C)ccc12 [Example 192, 7-(((1-methyl-1H-pyrazol-5-yl)methyl)amino)-4-(o-tolyl)-2H-chromen-2-one]
800 | C[C@@H](Cc1ccc2c(-c3ccc(F)cc3Cl)cc(=O)oc2c1)C(=O)N(C)C [Example 20, (S)-3-(4-(2-chloro-4-fluorophenyl)-2-oxo-2H-chromen-7-yl)-N,N,2-trimethylpropanamide]
200 | Cc1ccccc1-c1cc(=O)oc2cc(CN(C)C(=O)C3CCC(C(=O)O)CC3)ccc12 [Example 156, (1R,4R)-4-(methyl((2-oxo-4-(o-tolyl)-2H-chromen-7-yl)methyl)carbamoyl)cyclohexane-1-carboxylic acid]
2000 | Cc1ccccc1-c1cc(=O)oc2cc(C(=O)N(C)C)ccc12 [Example 34, N,N-dimethyl-2-oxo-4-(o-tolyl)-2H-chromene-7-carboxamide]
100 | Cc1ccccc1-c1cc(=O)oc2cc(N(C)CC(=O)NCC(F)(F)F)ccc12 [Example 220, 2-(methyl(2-oxo-4-(o-tolyl)-2H-chromen-7-yl)amino)-N-(2,2,2-trifluoroethyl)acetamide]
600 | Cc1ccccc1-c1cc(=O)oc2cc(CC(C)C(N)=O)ccc12 (single isomer, unassigned) [Example 68, 2-methyl-3-(2-oxo-4-(o-tolyl)-2H-chromen-7-yl)propanamide]
4000 | CN(Cc1ccc2c(-c3ccc(F)cc3Cl)cc(=O)oc2c1)C(=O)N1CCCCC1 [Example 05, N-((4-(2-chloro-4-fluorophenyl)-2-oxo-2H-chromen-7-yl)methyl)-N-methylpiperidine-1-carboxamide]
